Reference: US20060167109A1, “Methods of reducing rhinovirus contagion and related compositions” (priority 2002, published 2006)
“And” between values parts separate entries of the source, which are not always exact repeats. Equal entries are not always repeated.

Tests used:
HRV serotype 89 = test: Reversibility of pleconaril binding; assay type: cell-based, human rhinovirus
Protocol: (§1) The first question presented is whether pleconaril could bind to human rhinoviruses irreversibly. Various HRVs were incubated overnight at 4° C. with pleconaril at a concentration approximately 10 times the IC50 value. Parallel samples were incubated in medium with 0.5% dimethyl sulfoxide (DMSO) alone. The next day, samples were diluted 10,000-fold into pleconaril-free medium and incubated an additional 24 hrs at 4° C., followed by titration by plaque assay.
(§2) After 24 hours, virus samples were diluted 10,000-fold in culture medium and incubated an additional 24 hours at 4° C. Virus titers in the DMSO- and pleconaril-treated samples were then determined by plaque assay in the appropriate cell line as described below.
(§3) In some experiments, virus titers were determined by plaque assay. Cells in 6 well plates were infected with 1 mL of 10-fold dilutions of virus in duplicate for 1 hour at the appropriate incubation temperature. The inoculum was then removed and the cells were overlaid with 3 mL of agarose overlay medium (Eagles minimum essential medium (Life Technologies, Grand Island, N.Y.) with 50 mM Hepes buffer, pH 7.2, 5% FBS, antibiotics, and 1.5% SeaPlaque (HRVs)). The HRV overlay medium was further supplemented with 30 mM MgCl2 and 15 μg/mL DEAE dextran. […] After rinsing and drying, plaques were read manually.

HRV serotype 50 = test: Reversibility of pleconaril binding; assay type: cell-based, human rhinovirus
Protocol: as §1, §2, §3

HRV serotype 1A = test: Reversibility of pleconaril binding; assay type: cell-based, human rhinovirus
Protocol: as §1, §2, §3

HRV serotype 3 = test: Reversibility of pleconaril binding; assay type: cell-based, human rhinovirus
Protocol: as §1, §2, §3

HRV serotype 5 = test: Reversibility of pleconaril binding; assay type: cell-based, human rhinovirus; details: about 10 times IC50, then diluted 10,000-fold, plaque assay
Protocol: as §1, §2, §3

HRV serotype 14 = test: Reversibility of pleconaril binding; assay type: cell-based, human rhinovirus
Protocol: as §1, §2, §3

HRV serotype 2 = test: Reversibility of pleconaril binding; assay type: cell-based, human rhinovirus
Protocol: as §1, §2, §3

101 serotypes of HRVs = test: Spectrum of activity in HRV cytopathic effect assay
log P = assay type: physicochemical
HRV3 [1] = test: Multiple rounds of replication; assay type: cell-based, human rhinovirus; details: 2 μM added four hours post-attachment
Protocol: The next experiments were designed to answer the question as to whether the addition of pleconaril after the uncoating stage could affect the ability of progeny virions to initiate subsequent rounds of replication, i.e. reduce the infectivity of progeny virions. Cells were infected with HRV3 at a low MOI (0.01 pfu/cell) at room temperature. After removal of unattached virus, fresh medium was added and the cells were shifted to the higher temperature to allow uncoating to proceed. Four hours post-attachment, pleconaril or DMSO alone was added to the cultures, and plates were frozen at 12 hours (upon completion of a single cycle of replication) and 24 hours (upon completion of a second round of replication) post-infection. Virus yield from both rounds of replication was determined in the viral cytopathic effect assay.
HeLa cells in 6 well plates were infected with HRV3 at an MOI of 0.001 or 0.01 pfu/cell for 1 hour at room temperature in duplicate. The virus inoculum was then removed and the monolayers washed twice with DPBS. The cells were overlaid with 3 mL of M199 medium with 5% FBS and placed at 33° C. (HRV3). After 4 hrs, half of the wells received pleconaril to a final concentration of 2 μM in 0.5% DMSO, and half received DMSO alone. […] Virus yield was determined in the cytopathic effect assay after 2 cycles of chloroform extraction.

HRV3 [2] = test: Low pH inactivation; assay type: cell-based, human rhinovirus; details: 2 μM, pH 5.2, FIG. 4
Protocol: As a second indication of the direct interaction of the drug with the virion capsid, an experiment was conducted to examine the ability of pleconaril to protect HRV3 from low pH inactivation.
Approximately […] plaque forming units (PFU) of virus were incubated with 0.5% DMSO or 2 μM pleconaril (in 0.5% DMSO) overnight at 4° C. For HRV3, samples were diluted into sodium acetate buffer (1 M, pH 5.2 or pH 7.0) for 30 minutes on ice followed by neutralization with 2 volumes of 1M Tris-HCl, pH 8.0. All samples were extracted twice with chloroform prior to titration in the viral cytopathic effect assay on HeLa cells (see below).

HRV3 [3] = test: Time of drug addition; assay type: cell-based, human rhinovirus
Protocol: To determine the stage in the virus replication cycle that is affected by pleconaril, time of drug addition studies were conducted. Pleconaril was added to cells either during viral attachment or at various times thereafter. Viral replication was allowed to proceed for a single cycle of growth (10-12 hours), at which time the cells were lysed by a freeze-thaw cycle, residual pleconaril was removed by chloroform extraction, and virus yield was determined in the cytopathic effect assay. A 2 μM concentration of pleconaril inhibited greater than 90% of the yield of HRV3 from a single cycle of growth if present during the virus attachment period.
Twenty-four well plates (Costar 3524) of HeLa cells were infected in duplicate with 250 μL of HRV3 in M199 medium with 5% FBS at a multiplicity of infection (MOI) of approximately 1 PFU/cell for 1 hour at room temperature. During a treatment (the “−1 h” timepoint), one set of duplicate wells for each virus received 2 μM pleconaril, while the remaining wells received DMSO (0.5% final concentration). After attachment, the cells were washed twice with 1 mL of DPBS, and then overlaid with fresh medium. Pleconaril (2 μM final concentration) was added to the wells at the indicated times. The plates were incubated at 33° C. (HRV3) for 10 hours, at which time they were frozen at −80° C. […]

**Q.** Which “reversibility of binding to the virion” value (HRV serotype 89; HRV serotype 89) does the source give for `Cc1cc(CCCOc2c(C)cc(-c3noc(C(F)(F)F)n3)cc2C)on1` [pleconaril, 3-[3,5-dimethyl-4-[3-(3-methyl-5-isoxazolyl)propoxy]phenyl]-5-(trifluoromethyl)-1,2,4-oxadiazole] here?
**A.** binds irreversibly

**Q.** What about the “% Recovery of input infectious virus (% SD)” value (“% Recovery … (% SD)” below) (HRV serotype 89; serotype 89, about 10 times IC50, then diluted 10,000-fold, plaque assay) of the same molecule?
**A.** 9.9 (100) %

**Q.** And the “reversibility of binding to the virion” value (HRV serotype 50; HRV serotype 50)?
**A.** binds irreversibly

**Q.** What about the “% Recovery … (% SD)” value (HRV serotype 50; serotype 50, about 10 times IC50, then diluted 10,000-fold, plaque assay) of the same molecule?
**A.** 11.9 (40) %

**Q.** And the “reversibility of binding to the virion” value (HRV serotype 1A; HRV-1A)?
**A.** reversible upon dilution

**Q.** What about the “% Recovery … (% SD)” value (HRV serotype 1A; serotype 1A, about 10 times IC50, then diluted 10,000-fold, plaque assay) of the same molecule?
**A.** 85.4 (52.8) %

**Q.** And the “reversibility of binding to the virion” value (HRV serotype 3; HRV-3)?
**A.** reversible upon dilution

**Q.** And the “% Recovery … (% SD)” value (HRV serotype 3; serotype 3, about 10 times IC50, then diluted 10,000-fold, plaque assay)?
**A.** 92.8 (40.4) %

**Q.** And the “% Recovery … (% SD)” value (HRV serotype 5)?
**A.** 118 (53.5) %

**Q.** What about the “reversibility of binding to the virion” value (HRV serotype 14; HRV serotype 14) of the same molecule?
**A.** binds irreversibly

**Q.** What about the “% Recovery … (% SD)” value (HRV serotype 14; serotype 14, about 10 times IC50, then diluted 10,000-fold, plaque assay) of the same molecule?
**A.** 16.4 (33.9) %

**Q.** What about the “reversibility of binding to the virion” value (HRV serotype 2; HRV-2) of the same molecule?
**A.** reversible upon dilution

**Q.** What about the “% Recovery … (% SD)” value (HRV serotype 2; serotype 2, about 10 times IC50, then diluted 10,000-fold, plaque assay) of the same molecule?
**A.** 65.8 (51.3) %

**Q.** What about the MIC50 (101 serotypes of HRVs; Human rhinovirus sp., read-out: MIC50 (concentration inhibiting 50% of the HRV serotypes)) of the same molecule?
**A.** ≤ 0.2 µM and ≤ 0.08 µg/mL

**Q.** What about the MIC80 (101 serotypes of HRVs; Human rhinovirus sp., read-out: MIC80 (concentration inhibiting 80% of the HRV serotypes)) of the same molecule?
**A.** ≤ 0.78 µM and ≤ 0.3 µg/mL

**Q.** And the MIC90 (101 serotypes of HRVs; Human rhinovirus sp., read-out: MIC90 (concentration inhibiting 90% of the HRV serotypes))?
**A.** ≤ 4.3 µM and ≤ 1.6 µg/mL

**Q.** What about the “HRVs whose replication was inhibited” value (101 serotypes of HRVs; of 101 prototypic serotypes) of the same molecule?
**A.** 93 of 101

**Q.** And the “log P” value (log P)?
**A.** high

**Q.** And the “yield of progeny virions from the first round of virus replication” value (HRV3 [1]; 12 hours)?
**A.** little effect

**Q.** And the “second round of replication” value (HRV3 [1]; 24 hours)?
**A.** completely prevented

**Q.** What about the “protection from low pH inactivation” value (HRV3 [2]) of the same molecule?
**A.** protect HRV3 from low pH-induced degradation

**Q.** And the “reduction in virus yield” value (HRV3 [3]; 2 μM, drug addition after attachment (0 hour timepoint))?
**A.** < 1 log10

**Q.** What about the inhibition at 2 µM (HRV3 [3]; Human rhinovirus sp., HRV3, present during the virus attachment period, read-out: inhibition of the yield of HRV3 from a single cycle of growth) of the same molecule?
**A.** > 90%
